Test results taken from patent US20250333397A1 (REMIX THERAPEUTICS INC., priority 2021, published 2025).
Read-outs that look alike come from different tables or passages of the source.

Assays:
Assay type in all cases: cell-based, human
HTT mRNA = experiment: RT-qPCR splicing assay, HTT canonical (CJ) and alternative (AJ) junction mRNA; conditions: Homo sapiens; for AC50: read-out: HTT AJ (AC50, increase in AJ mRNA)
Procedure, shortened: (§1)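 24 h compound exposure of A673 or K562 cells at 37 °C, 10 uM top final concentration, 3-fold steps, DMSO ≤0.25%. Splice-isoform levels determined by qPCR on cDNA from lysates, run at least in duplicate; values expressed as RQ normalized to GAPDH, GUSB or PPIA and DMSO.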

MYB mRNA = experiment: RT-qPCR splicing assay, MYB canonical (CJ) and alternative (AJ) junction mRNA; conditions: Homo sapiens; for AC50: read-out: MYB AJ (AC50, increase in AJ mRNA)
Procedure, shortened: as §1

SMN2 mRNA = experiment: RT-qPCR splicing assay panel, SMN2 canonical junction (CJ) mRNA; conditions: Homo sapiens
Procedure, shortened: as §1

Target C mRNA = experiment: RT-qPCR splicing assay panel, Target C canonical junction (CJ) mRNA; conditions: Homo sapiens
Procedure, shortened: as §1

[1] = 24 h, Table 3A, A673 or K562 cells, 24 h treatment
[2] = 24 h, Table 3A, A673 or K562 cells, 24 h treatment, read-out: HTT CJ (IC50, decrease in CJ mRNA)
[3] = canonical junction (CJ) mRNA, RT-qPCR panel, Table 4A, read-out: HTT, decrease in CJ mRNA levels, IC50
[4] = 24 h, Table 3A, A673 or K562 cells, 24 h treatment, read-out: MYB CJ (IC50, decrease in CJ mRNA)
[5] = canonical junction (CJ) mRNA, RT-qPCR panel, Table 4A, read-out: MYB, decrease in CJ mRNA levels, IC50
[6] = canonical junction (CJ) mRNA, RT-qPCR panel, Table 4A, read-out: SMN2, decrease in CJ mRNA levels, IC50
[7] = canonical junction (CJ) mRNA, RT-qPCR panel, Table 4A, read-out: Target C, decrease in CJ mRNA levels, IC50
[8] = 24 h, Table 3B, A673 or K562 cells, 24 h treatment
[9] = 24 h, Table 3B, A673 or K562 cells, 24 h treatment, read-out: HTT CJ (IC50, decrease in CJ mRNA)
[10] = Table 4B, gene panel, read-out: HTT (IC50, decrease in CJ mRNA levels)
[11] = 24 h, Table 3B, A673 or K562 cells, 24 h treatment, read-out: MYB CJ (IC50, decrease in CJ mRNA)
[12] = Table 4B, gene panel, read-out: MYB (IC50, decrease in CJ mRNA levels)
[13] = Table 4B, gene panel, read-out: SMN2 (IC50, decrease in CJ mRNA levels)
[14] = Table 4B, gene panel, read-out: Target C (IC50, decrease in CJ mRNA levels)

| SMILES | AC50 (HTT mRNA; [1]) [nM] | IC50 (HTT mRNA; [2]) [nM] | IC50 (HTT mRNA; [3]) [nM] | AC50 (MYB mRNA; [1]) [nM] | IC50 (MYB mRNA; [4]) [nM] | IC50 (MYB mRNA; [5]) [nM] | IC50 (SMN2 mRNA; [6]) [nM] | IC50 (Target C mRNA; [7]) [nM] | AC50 (HTT mRNA; [8]) [nM] | IC50 (HTT mRNA; [9]) [nM] | IC50 (HTT mRNA; [10]) [nM] | AC50 (MYB mRNA; [8]) [nM] | IC50 (MYB mRNA; [11]) [nM] | IC50 (MYB mRNA; [12]) [nM] | IC50 (SMN2 mRNA; [13]) [nM] | IC50 (Target C mRNA; [14]) [nM] |
| --- | --- | --- | --- | --- | --- | --- | --- | --- | --- | --- | --- | --- | --- | --- | --- | --- |
| Oc1cc(-c2cc(OC(F)F)ncn2)ccc1-c1ccc(N2CCC(NCC3CC3)C2)nn1 (centres unmarked) [Compound 370] | > 10000 | > 10000 | > 10000 | > 10000 | > 10000 | > 10000 | 100 to 1000 | > 10000 |  |  |  |  |  |  |  |  |
| Oc1cc(-c2cn[nH]c2)ccc1-c1ccc(N2CC[C@@H](NC3CCC3)C2)nn1 [Compound 114, 2-{6-[(3R)-3-(cyclobutylamino)pyrrolidin-1-yl]pyridazin-3-yl}-5-(1H-pyrazol-4-yl)phenol] | < 100 | < 100 | < 100 | 100 to 1000 | 100 to 1000 | 100 to 1000 | < 100 | 100 to 1000 |  |  |  |  |  |  |  |  |
| Cc1nc2cc(O)c(-c3ccc(N4CCC(NC5CCC5)C4)nn3)cc2o1 (centres unmarked) [Compound 830] |  |  |  |  |  |  |  |  | > 10000 | > 10000 | > 10000 | > 10000 | > 10000 | > 10000 | > 10000 | > 10000 |
| Cc1nc2cc(O)c(-c3ccc(N4CCC(C)(NC(C)(C)C)C4)nn3)cc2o1 (centres unmarked) [Compound 837] |  |  |  |  |  |  |  |  | 1000 to 10000 | 100 to 1000 | 100 to 1000 | 1000 to 10000 | 1000 to 10000 | 1000 to 10000 | 100 to 1000 | 1000 to 10000 |
| Cc1ncc(-c2cc(O)c(-c3ccc(N4CC[C@H](NCC5CCC5)C4)nn3)cc2F)s1 [Compound 411] | < 100 | < 100 | < 100 | 100 to 1000 | 1000 to 10000 | 1000 to 10000 | < 100 | < 100 |  |  |  |  |  |  |  |  |
| COc1cc(-c2ccc(-c3ccc(N4CCC(N[C@H]5C[C@H](OC)C5)C4)nn3)c(O)c2)cnn1 (some centres unmarked) [Compound 448] | 100 to 1000 | 100 to 1000 | 100 to 1000 | 100 to 1000 | 100 to 1000 | 100 to 1000 | < 100 | 100 to 1000 |  |  |  |  |  |  |  |  |
| Cn1cc2nc(-c3ccc(-c4ccc(N5CCC(NC6CCC6)C5)nn4)c(O)c3)ccc2n1 (centres unmarked) [Compound 319] | 100 to 1000 | 100 to 1000 | 100 to 1000 | 100 to 1000 | 1000 to 10000 | 1000 to 10000 | 100 to 1000 | 1000 to 10000 |  |  |  |  |  |  |  |  |
| CNc1cc(-c2ccc(-c3ccc(N4CC[C@H](NC(C)(C)C)C4)nn3)c(O)c2)ncn1 [Compound 436, 2-{6-[(3S)-3-(tert-butylamino)pyrrolidin-1-yl]pyridazin-3-yl}-5-[6-(methylamino)pyrimidin-4-yl]phenol] | < 100 | < 100 | < 100 | 100 to 1000 | 100 to 1000 | 100 to 1000 | < 100 | < 100 |  |  |  |  |  |  |  |  |
| COc1cncc(-c2cc(O)c(-c3ccc(N4CC[C@H](NC5CCC5)C4)nn3)cc2F)c1 [Compound 224, 2-{6-[(3S)-3-(cyclobutylamino)pyrrolidin-1-yl]pyridazin-3-yl}-4-fluoro-5-(5-methoxypyridin-3-yl)phenol] | > 10000 | 1000 to 10000 | 1000 to 10000 | > 10000 | > 10000 | > 10000 | 1000 to 10000 | > 10000 |  |  |  |  |  |  |  |  |
| CC1(C)CC(Oc2ccc(-c3cc(F)c(-c4cn[nH]c4)cc3O)nn2)CC(C)(C)N1 [Compound 361] | < 100 | < 100 | < 100 | < 100 | 100 to 1000 | 100 to 1000 | < 100 | < 100 |  |  |  |  |  |  |  |  |
| COc1cc(-c2cc(O)c(-c3ccc(N4CC[C@](C)(NCC5CC5)C4)nn3)cc2F)cnn1 [Compound 452, 2-{6-[(3S)-3-[(cyclopropylmethyl)amino]-3-methylpyrrolidin-1-yl]pyridazin-3-yl}-4-fluoro-5-(6-methoxypyridazin-4-yl)phenol] |  |  | < 100 |  |  | 100 to 1000 | 100 to 1000 | 100 to 1000 |  |  |  |  |  |  |  |  |
| Cc1cn2cc(-c3ccc(-c4ccc(N5CCC(NC6CCC6)C5)nn4)c(O)c3)ncc2n1 (centres unmarked) [Compound 327] | 100 to 1000 | 100 to 1000 | 100 to 1000 | 100 to 1000 | 1000 to 10000 | 1000 to 10000 | < 100 | 1000 to 10000 |  |  |  |  |  |  |  |  |
| COc1cc(-c2ccc(-c3ccc(N4CCC(NC5CCC5)C4)nn3)c(O)c2)c(F)cn1 (centres unmarked) [Compound 307] | 1000 to 10000 | 1000 to 10000 | 1000 to 10000 | > 10000 | > 10000 | > 10000 | 1000 to 10000 | > 10000 |  |  |  |  |  |  |  |  |
| Cc1nc2cc(O)c(-c3ccc(N4CC[C@@H](NC(C)(C)C(C)C)C4)nn3)cc2o1 [Compound 874] |  |  |  |  |  |  |  |  | < 100 | < 100 | < 100 | 100 to 1000 | 100 to 1000 | 100 to 1000 | < 100 | 100 to 1000 |
| Oc1cc(-c2cn[nH]c2)c(F)cc1-c1ccc(N2CC[C@@H](NC3CCC3)C2)nn1 [Compound 115, 2-{6-[(3R)-3-(cyclobutylamino)pyrrolidin-1-yl]pyridazin-3-yl}-4-fluoro-5-(1H-pyrazol-4-yl)phenol] | < 100 | < 100 | < 100 | < 100 | < 100 | < 100 | < 100 | < 100 |  |  |  |  |  |  |  |  |
| Cc1nc2cc(O)c(-c3cnc(N4CC[C@@H](NC(C)(C)C)C4)nn3)cc2o1 [Compound 808] |  |  |  |  |  |  |  |  | > 10000 | 1000 to 10000 | 1000 to 10000 | > 10000 | > 10000 | > 10000 | 1000 to 10000 | > 10000 |
| COc1cc(-c2cc(O)c(-c3ccc(N4CC[C@H](NC5(C)CCC5)C4)nn3)cc2F)cnn1 [Compound 299] | < 100 | < 100 | < 100 | 100 to 1000 | 100 to 1000 | 100 to 1000 | < 100 | 100 to 1000 |  |  |  |  |  |  |  |  |
| Cc1ncc(-c2ccc(-c3ccc(N4CC[C@H](N(C)C5CCC5)C4)nn3)c(O)c2)s1 [Compound 268] | 1000 to 10000 | 100 to 1000 | 100 to 1000 | > 10000 | > 10000 | > 10000 | 100 to 1000 | > 10000 |  |  |  |  |  |  |  |  |
| CC(C)(C)N[C@@H]1CCN(c2ccc(-c3ccc(-c4cn[nH]c4)cc3O)nn2)C1 [Compound 262] | < 100 | < 100 | < 100 | < 100 | < 100 | < 100 | < 100 | < 100 |  |  |  |  |  |  |  |  |
| Cc1ccc(-c2ccc(-c3ccc(N4CC[C@H](NC5CCC5)C4)nn3)c(O)c2)cn1 [Compound 281] | 100 to 1000 | 100 to 1000 | 100 to 1000 | 1000 to 10000 | 1000 to 10000 | 1000 to 10000 | < 100 | 1000 to 10000 |  |  |  |  |  |  |  |  |
| Cn1ncc(-c2ccc(-c3ccc(N4CC[C@H](NC(C)(C)C)C4)nn3)c(O)c2)cc1=O [Compound 298, 5-(4-{6-[(3S)-3-(tert-butylamino)pyrrolidin-1-yl]pyridazin-3-yl}-3-hydroxyphenyl)-2-methylpyridazin-3-one] | 100 to 1000 | < 100 | < 100 | 100 to 1000 | 100 to 1000 | 100 to 1000 | < 100 | 100 to 1000 |  |  |  |  |  |  |  |  |
